Assay results taken from the CheMixHub viscosity set.

Assay: xn = mol fraction of the nth substance listed

CC(O)CO (configuration not stated) + CO
viscosity [mPa·s], 101 kPa
Settings	x1 = 0.1	x1 = 0.2	x1 = 0.3	x1 = 0.4	x1 = 0.5	x1 = 0.6	x1 = 0.7	x1 = 0.8	x1 = 0.9
298.15 K	0.8967	1.436	2.244	3.432	5.254	7.972	12.13	18.51	28.39
308.15 K	0.7629	1.187	1.814	2.731	4.083	6.016	8.726	12.53	17.88
318.15 K	0.6278	0.9689	1.457	2.129	3.054	4.33	6.037	8.242	11.2

Cc1ccccn1 + CO
101 kPa
Settings	viscosity [mPa·s]
298.23 K, x1 = 0.4451	0.774
298.23 K, x1 = 0.5511	0.782
298.25 K, x1 = 0.1201	0.641
298.28 K, x1 = 0.6483	0.784
298.28 K, x1 = 0.8299	0.76
303.15 K, x1 = 0.2351	0.671
303.16 K, x1 = 0.1201	0.6
303.22 K, x1 = 0.6483	0.733
303.22 K, x1 = 0.8299	0.714
303.25 K, x1 = 0.4451	0.722
303.26 K, x1 = 0.5511	0.729
308.17 K, x1 = 0.1201	0.562
308.23 K, x1 = 0.6483	0.686
308.23 K, x1 = 0.8299	0.669
308.25 K, x1 = 0.5511	0.682
308.26 K, x1 = 0.4451	0.676
308.38 K, x1 = 0.2351	0.625
313.21 K, x1 = 0.2351	0.587
313.22 K, x1 = 0.1201	0.522
313.27 K, x1 = 0.6483	0.645
313.27 K, x1 = 0.8299	0.631
313.28 K, x1 = 0.4451	0.633
313.28 K, x1 = 0.5511	0.641
318.25 K, x1 = 0.2351	0.55
318.26 K, x1 = 0.1201	0.49
318.29 K, x1 = 0.6483	0.606
318.29 K, x1 = 0.8299	0.592
318.35 K, x1 = 0.5511	0.601
318.36 K, x1 = 0.4451	0.594

ClC=C(Cl)Cl + CO
viscosity [mPa·s], 101 kPa
Settings	293.15 K	303.15 K	313.15 K	323.15 K
x2 = 0.017	0.554	0.507	0.466	0.429
x2 = 0.057	0.56	0.509	0.466	0.427
x2 = 0.152	0.58	0.523	0.476	0.435
x2 = 0.1523	–	0.56	0.524	0.473
x2 = 0.286	0.605	0.541	0.485	0.441
x2 = 0.3071	–	0.55	0.518	0.4735
x2 = 0.446	–	0.54	0.511	0.473
x2 = 0.562	0.656	0.576	0.508	0.452
x2 = 0.5963	–	0.53	0.505	0.474
x2 = 0.6	0.667	0.581	0.513	0.455
x2 = 0.699	0.674	0.59	0.519	0.461
x2 = 0.72	0.67	0.587	0.517	0.458
x2 = 0.756	–	0.518	0.497	0.475
x2 = 0.78	0.663	0.578	0.508	0.45
x2 = 0.9011	–	0.508	0.492	0.476
x2 = 0.92	0.62	0.543	0.477	0.423

O=C1CCCC1 + COC(=O)c1ccccc1
viscosity [mPa·s], 101 kPa
Settings	x2 = 0.0744	x2 = 0.1523	x2 = 0.2344	x2 = 0.3214	x2 = 0.418	x2 = 0.5133	x2 = 0.6186	x2 = 0.737	x2 = 0.8638
303.15 K	1.058	1.115	1.176	1.223	1.284	1.339	1.407	1.481	1.573
313.15 K	0.91	0.946	0.984	1.026	1.071	1.116	1.164	1.218	1.285

ClC=C(Cl)Cl + COCCO
viscosity [mPa·s], 101.33 kPa
Settings	x1 = 0.1175	x1 = 0.2132	x1 = 0.3211	x1 = 0.4746	x1 = 0.5328	x1 = 0.6149	x1 = 0.7063	x1 = 0.8042	x1 = 0.9056
303.15 K	1.317	1.181	1.041	0.86	0.804	0.731	0.659	0.597	0.546
313.15 K	1.074	0.981	0.88	0.746	0.703	0.648	0.591	0.543	0.504

NC1CCCCC1 + COCCO
308.15 K, 101 kPa
Settings	viscosity [mPa·s]
x2 = 0.1393	1.314
x2 = 0.267	1.303
x2 = 0.3844	1.298
x2 = 0.4927	1.29
x2 = 0.593	1.294
x2 = 0.6861	1.283
x2 = 0.7727	1.263
x2 = 0.8536	1.254
x2 = 0.9291	1.242

ClC=C(Cl)Cl + COc1ccccc1
303.15 K, 101.3 kPa
Settings	viscosity [mPa·s]
x2 = 0.1234	0.523
x2 = 0.1791	0.541
x2 = 0.2335	0.561
x2 = 0.2818	0.577
x2 = 0.4018	0.623
x2 = 0.5204	0.672
x2 = 0.5501	0.682
x2 = 0.648	0.73
x2 = 0.7243	0.765
x2 = 0.8135	0.814

NC1CCCCC1 + CS(C)=O
303.15 K, 101 kPa
Settings	viscosity [mPa·s]
x2 = 0.1	1.571
x2 = 0.1807	1.518
x2 = 0.2707	1.481
x2 = 0.3707	1.467
x2 = 0.4679	1.47
x2 = 0.5654	1.497
x2 = 0.6703	1.542
x2 = 0.7894	1.611
x2 = 0.8913	1.692

O=C(CO)[C@@H](O)[C@H](O)[C@H](O)CO + CS(C)=O
viscosity [mPa·s], 101 kPa
Settings	x1 = 0.04904	x1 = 0.07411	x1 = 0.106	x1 = 0.1269	x1 = 0.151	x1 = 0.1722	x1 = 0.1979	x1 = 0.2243
298.15 K	3.98	6.037	10.34	14.99	23.48	35.39	59.46	104.7
308.15 K	3.096	4.529	7.33	10.21	15.13	21.64	34.14	55.88
318.15 K	2.48	3.507	5.442	7.283	10.35	14.17	21.19	32.62
